Assay results taken from US20180339066A1, “Methods and Compositions for Enhancing Transduction Efficiency of Retroviral Vectors” (The Scripps Research Institute, priority 2013, published 2018).

Legend:
[1] = tested on: human cord blood CD34+ cells; test: HIV-1 based lentiviral vector transduction of cord blood CD34+ cells, GFP by flow cytometry; format: cell-based; details: for transduction efficiency: added with vector or delayed by 2 or 6 hours
[2] = tested on: stimulated cord blood CD34+ cells; test: Quantification of HIV-1 reverse transcription products by qPCR; details: MOI=25, 20 μg/ml rapamycin
Procedure: Quantification of HIV-1 reverse transcription products. Stimulated cord blood CD34^+ cells (2-3E5) were transduced with an MOI of 25 in the presence of 20 μg/ml rapamycin or DMSO, and harvested at 6, 12, or 24 hours after the start of transduction by freezing cell pellets at −80° C. Total DNA was extracted using the QiaAmp DNA mini kit, and treated with Dpnl for 2-4 hours to eliminate plasmid DNA. Quantitative PCR was carried out on the Roche LightCycler 480 using previously published primer and probe sequences (Prasad et al., HIV Protocols: Second Edition 485, 2009).

cord blood CD34+ cells = test: Colony forming assay and parallel liquid culture of transduced cord blood CD34+ cells; format: cell-based, human; details: stimulated cord blood CD34+ cells, MOI=25
Procedure: (§1) Colony forming assay, NSG mouse reconstitution, and serial transplantation. For colony forming assays, transduced cord blood CD34^+ HSPCs were counted and 100 cells were seeded in 1.5 ml methocult4434 (StemCell Technologies) in 30 mm dishes in triplicate. Total BFU-E, CFU-GM, CFU-M, and CFU-GEMM colonies, as well as GFP+ colonies, were counted 16-18 days after plating using a fluorescent microscope. […] Mice were bled every 4 weeks starting from 8 weeks post injection, and sacrificed at 19 weeks to assess engraftment and GFP expression in the bone marrow, spleen, and thymus by flow cytometry. For serial transplantation, primary recipients were sacrificed at 12 weeks post injection, and bone marrow cells from both femurs of one mouse were injected into two irradiated secondary recipients, which were again sacrificed at 12 weeks post injection for flow cytometric analysis of bone marrow and spleen. NSG mice were maintained at the Scripps Research Institute Molecular and Experimental Medicine animal facility.
To determine whether primitive HSCs in the heterogeneous CD34^+ population are transduced in the presence of rapamycin, we tested the ability of transduced cord blood CD34^+ cells to engraft irradiated NSG mice. A fraction of transduced cells was assessed in parallel liquid culture and colony forming assays. […]

[3] = tested on: primitive HSCs (serial repopulating cells); test: Serial NSG mouse transplantation of transduced cord blood CD34+ cells; format: in vivo, human
Procedure: as §1
To stringently establish transduced cells as primitive HSCs, we carried out serial NSG mouse transplantation with cord blood CD34^+ cells transduced with or without rapamycin. […] Bone marrow cells of secondary recipients were again analyzed 12 weeks post injection.

NSG-repopulating cells = test: NSG mouse reconstitution with transduced cord blood CD34+ cells (long-term engraftment); format: in vivo, human
Procedure: as §1
To determine whether primitive HSCs in the heterogeneous CD34^+ population are transduced in the presence of rapamycin, we tested the ability of transduced cord blood CD34^+ cells to engraft irradiated NSG mice. A fraction of transduced cells was assessed in parallel liquid culture and colony forming assays. […] Mice were sacrificed 19 weeks after injection to assess long-term engraftment. […] This four-fold transduction enhancement in NSG-repopulating cells was more pronounced than in parallel liquid culture or CFU assay (FIG. 2C), indicating preferential transduction of primitive HSCs in the presence of rapamycin.

[4] = tested on: human cord blood CD34+ cells; test: Integrase-defective lentiviral vector (IDLV) transduction of cord blood CD34+ cells; details: MOI=50, two days after transduction
Procedure: Human cord blood CD34^+ cells were stimulated for 24 h and transduced with IDLVs, MOI=50, with or without 10 ng/μl rapamycin. GFP expression was assayed by flow cytometry every three days from 2-14 days post transduction. Data represent mean and standard deviation of independent transductions of two separate donors.
Cord blood CD34^+ cells were transduced with IDLVs in the absence or presence of rapamycin, and GFP expression was followed from 2-14 days post transduction.

p21 mRNA = p21 mRNA quantification by RT-PCR; details: cord blood CD34+ cells, 20 μg/ml rapamycin, 6 hours
[5] = NSG mice, 19 weeks after injection

## Cn1cnc(N)c2ncnc1-2 [3-methyadenine, 3-methyladenine]
[1]; autophagosome formation inhibited during transduction
  GFP expression: decreased

## CCC(=O)N1CCN(c2ccc(-n3c(=O)ccc4cnc5ccc(-c6cnc7ccccc7c6)cc5c43)cc2C(F)(F)F)CC1 [Torin 1]
[1]; 5 μM
  in vitro transduction efficiency relative to DMSO control: enhanced
  transduction enhancement compared with rapamycin: comparable

## CO/C1=C\C(C)=C\[C@@H](C)[C@@H](O)[C@@H](C)C/C(C)=C/C=C/[C@H](OC)[C@@H]([C@@H](C)[C@@H](O)[C@H](C)[C@@]2(O)C[C@@H](O)[C@H](C)[C@@H](C(C)C)O2)OC1=O [bafilomycin Al]
[1]
  transduction efficiency: decreased

## CCN(CC)CCCC(C)Nc1ccnc2cc(Cl)ccc12 (stereo not shown) [chloroquine]
[1]
  transduction efficiency: decreased

## CO[C@H]1C[C@@H]2CC[C@@H](C)[C@@](O)(O2)C(=O)C(=O)N2CCCC[C@H]2C(=O)O[C@H]([C@H](C)C[C@@H]2CC[C@@H](O)[C@H](OC)C2)CC(=O)[C@H](C)/C=C(\C)[C@@H](O)[C@@H](OC)C(=O)[C@H](C)C[C@H](C)/C=C/C=C/C=C/1C [rapamycin]
[2]
  increase in per cell amount of 2-LTR circles: 2-to-3 fold
  increase in per cell amount of viral full-length DNA: 2-to-3 fold
Cord blood CD34+ cells
  efficiency or proportion of colony formation: did not significantly affect
[3]; human hematopoietic stem cells
  gene marking frequency relative to other known methods of treatment: 4-5 fold
[3]; secondary mouse recipients
  EGFP-marked human cell populations in secondary recipients: > 90%
NSG-repopulating cells; 20 μg/ml rapamycin during transduction, 19 weeks, control 20%
  GFP positivity in human CD45+ cells in mouse bone marrow: 80%
NSG-repopulating cells; [5]
  long-term engraftment ability of CD34+ cells: did not impair
  reconstitution levels in bone marrow vs control: not statistically different
[4]
  increase in percentage of GFP expressing cells: 17%
[1]; pre-stimulated cord blood CD34+ cells, rapamycin present during transduction, 11-14 days in culture, control 40%
  GFP positivity (percentage of GFP-expressing cells): 80%
p21 mRNA
  up-regulation in p21 mRNA: 3-5 fold
